Like-named read-outs stand apart in the source and are kept apart here.
System: wild‐type BCG cells
Assay type: cell-based, M. bovis BCG
Conditions: for Mean Ratio: GDI5755_2d vs DMSO_2d; for Mean Ratio / Mean Ratio (GDI5755_2d vs DMSO_2d): up-regulated; for Mean_Ratio (GDI5755_3d vs DMSO_3d): down-regulated, 3 d; for Mean Ratio (GDI5755_2d vs DMSO_2d): 2d

SMILES: O=C(Oc1ccc(Cl)cc1)c1ccc(N2CCOCC2)c([N+](=O)[O-])c1 [GDI‐5755]
- Mean Ratio (protein A1KKK9 Transcriptional regulator MraZ): 1.25
- Mean_Ratio (GDI5755_3d vs DMSO_3d) (protein A1KKR8, BCG_2242 (Rv2225), 3-methyl-2-oxobutanoate hydroxymethyltransferase): 0.748
- Mean_Ratio (GDI5755_3d vs DMSO_3d) (protein A1KLF3, BCG_2477c (Rv2457c), ATP-dependent Clp protease ATP-binding subunit ClpX): 0.743
- Mean_Ratio (GDI5755_3d vs DMSO_3d) (protein A1KLT2, BCG_2607c (Rv2584c), Adenine phosphoribosyltransferase): 0.7
- Mean_Ratio (GDI5755_3d vs DMSO_3d) (protein A1KMA6, BCG_2781c (Rv2764c), Thymidylate synthase): 0.7
- Mean Ratio (GDI5755_2d vs DMSO_2d) (protein A1KNI8 UPF0182 protein BCG_3215c): 1.34
- Mean Ratio (protein A1KNQ0 Adenosylhomocysteinase): 1.26
- Mean_Ratio (GDI5755_3d vs DMSO_3d) (protein A1KQ47, BCG_3775c (Rv3715c), Recombination protein RecR): 0.7
- Mean Ratio (GDI5755_2d vs DMSO_2d) (protein BCG_0095 A1KEN2 UPF0182 protein): 1.41
- Mean Ratio (GDI5755_2d vs DMSO_2d) (protein BCG_0108c A0A0H3M9Q4 Probable oxidoreductase): 1.77
- Mean Ratio (GDI5755_2d vs DMSO_2d) (protein BCG_0130 A0A0H3M0N8 Possible oxidoreductase): 1.72
- Mean Ratio (GDI5755_2d vs DMSO_2d) (protein BCG_0132 A0A0H3M2I5 Possible fatty-acid-CoA ligase fadD10): 1.49
- Mean Ratio (GDI5755_2d vs DMSO_2d) (protein BCG_0178 A0A0H3M7D0 DNA glycosylase): 1.58
- Mean Ratio (GDI5755_2d vs DMSO_2d) (protein BCG_0181 A1KEW5 Putative S-adenosyl-L-methionine-dependent methyltransferase): 2.17
- Mean Ratio (GDI5755_2d vs DMSO_2d) (protein BCG_0182 A1KEW6 Putative S-adenosyl-L-methionine-dependent methyltransferase): 2.71
- Mean Ratio (GDI5755_2d vs DMSO_2d) (protein BCG_0228 A0A0H3MA02 Probable conserved integral membrane protein): 1.46
- Mean Ratio (GDI5755_2d vs DMSO_2d) (protein BCG_0248 A1KF31 Phosphoenolpyruvate carboxykinase [GTP],pckG): 1.87
- Mean Ratio (GDI5755_2d vs DMSO_2d) (protein BCG_0282c A0A0H3M7K8 Probable acyl-CoA dehydrogenase fadE5): 1.45
- Mean Ratio (GDI5755_2d vs DMSO_2d) (protein BCG_0289c A0A0H3MA45 HSP20 family protein/ Heat stress induced ribosome-binding protein A,acr2): 3.46
- Mean Ratio (GDI5755_2d vs DMSO_2d) (protein BCG_0353 A0A0H3M1Y1 Transmembrane protein): 1.84
- Mean Ratio (GDI5755_2d vs DMSO_2d) (protein BCG_0380 A0A0H3MAC3 Isoniazid inductible gene protein iniB): 1.73
- Mean Ratio (GDI5755_2d vs DMSO_2d) (protein BCG_0389 A1KFH2 Chaperone protein DnaK): 1.52
- Mean Ratio (GDI5755_2d vs DMSO_2d) (protein BCG_0390 A1KFH3 Protein GrpE): 1.53
- Mean Ratio (GDI5755_2d vs DMSO_2d) (protein BCG_0391 A0A0H3M380 Chaperone protein DnaJ): 1.51
- Mean Ratio (GDI5755_2d vs DMSO_2d) (protein BCG_0422c A0A0H3M7W9 Chaperone protein ClpB): 1.56
- Mean Ratio (GDI5755_2d vs DMSO_2d) (protein BCG_0465c A0A0H3M812 Possible transmembrane protein): 1.45
- Mean Ratio (GDI5755_2d vs DMSO_2d) (protein BCG_0490c A0A0H3M1K6 Probable conserved membrane protein mmpS4): 1.45
- Mean Ratio (GDI5755_2d vs DMSO_2d) (protein BCG_0494c A0A0H3M296 DUF5078 domain-containing protein): 1.52
- Mean Ratio (GDI5755_2d vs DMSO_2d) (protein BCG_0507 A0A0H3M3L9 isocitrate lyase): 1.56
- Mean Ratio (GDI5755_2d vs DMSO_2d) (protein BCG_0517 A0A0H3M881 Possible conserved transmembrane protein): 1.43
- Mean Ratio (GDI5755_2d vs DMSO_2d) (protein BCG_0565 A0A0H3M3T9 Probable gaba permease gabP (4-amino butyrate transport carrier)): 1.46
- Mean Ratio (GDI5755_2d vs DMSO_2d) (protein BCG_0578c A0A0H3M3U8 1,4-dihydroxy-2-naphthoate octaprenyltransferase): 1.66
- Mean Ratio (GDI5755_2d vs DMSO_2d) (protein BCG_0605c A1KG37 2-heptyl-1-hydroxyquinolin-4(1H)-one methyltransferase): 2.76
- Mean Ratio (GDI5755_2d vs DMSO_2d) (protein BCG_0614 A0A0H3M8E5 DUF1918 domain-containing protein): 1.43
- Mean Ratio (GDI5755_2d vs DMSO_2d) (protein BCG_0623c A0A0H3M1W6 PE-PGRS family protein): 1.87
- Mean Ratio (GDI5755_2d vs DMSO_2d) (protein BCG_0725c A0A0H3MAX0 Probable conserved transmembrane transport protein mmpL5): 1.69
- Mean Ratio (GDI5755_2d vs DMSO_2d) (protein BCG_0727 A0A0H3M257 Transcriptional regulator): 1.43
- Mean Ratio (GDI5755_2d vs DMSO_2d) (protein BCG_0761 A0A0H3M268 Possible arylsulfatase atsA): 1.61
- Mean Ratio (GDI5755_2d vs DMSO_2d) (protein BCG_0776c A1KGK7 Putative S-adenosyl-L-methionine-dependent methyltransferase BCG_0776c): 1.55
- Mean Ratio (GDI5755_2d vs DMSO_2d) (protein BCG_0835 A0A0H3M322 Deacetylase): 1.55
- Mean Ratio (GDI5755_2d vs DMSO_2d) (protein BCG_0883 A1KGW3 Putative S-adenosyl-L-methionine-dependent methyltransferase BCG_0883): 1.87
- Mean Ratio (GDI5755_2d vs DMSO_2d) (protein BCG_0969 A0A0H3M4Q4 Possible glycine betaine transport integral membrane protein betP): 1.64
- Mean Ratio (GDI5755_2d vs DMSO_2d) (protein BCG_1053 A0A0H3M3P8 Uncharacterized protein): 1.56
- Mean Ratio (GDI5755_2d vs DMSO_2d) (protein BCG_1115 A0A0H3M9F1 Uncharacterized protein): 1.90
- Mean Ratio (GDI5755_2d vs DMSO_2d) (protein BCG_1130 A0A0H3M9G5 Probable conserved transmembrane protein): 1.64
- Mean Ratio (GDI5755_2d vs DMSO_2d) (protein BCG_1191 A0A0H3M5B0 2-methylcitrate dehydratase): 1.57
- Mean Ratio (GDI5755_2d vs DMSO_2d) (protein BCG_1249 A0A0H3M3D0 L-glutamate gamma-semialdehyde dehydrogenase): 1.49
- Mean Ratio (GDI5755_2d vs DMSO_2d) (protein BCG_1281 A0A0H3M3F3 Alternative RNA polymerase sigma factor sigE): 1.41
- Mean Ratio (GDI5755_2d vs DMSO_2d) (protein BCG_1309c A0A0H3M3H0 Possible membrane protein): 1.44
- Mean Ratio (GDI5755_2d vs DMSO_2d) (protein BCG_1334 A0A0H3M3I9 Lipoprotein lprC): 1.55
- Mean Ratio (GDI5755_2d vs DMSO_2d) (protein BCG_1404c A0A0H3M3N1 Conserved membrane protein): 1.78
- Mean Ratio (GDI5755_2d vs DMSO_2d) (protein BCG_1574c A0A0H3M689 Probable conserved transmembrane transport protein mmpL12): 1.47
- Mean Ratio (GDI5755_2d vs DMSO_2d) (protein BCG_1609 A0A0H3M480 Probable conserved transmembrane transport protein mmpL6): 1.85
- Mean Ratio (GDI5755_2d vs DMSO_2d) (protein BCG_1660c A0A0H3M5A2 Probable integral membrane cytochrome D ubiquinol oxidase (Subunit II) cydB): 1.42
- Mean Ratio (GDI5755_2d vs DMSO_2d) (protein BCG_1661c A0A0H3M4E4 Probable integral membrane cytochrome D ubiquinol oxidase (Subunit I) cydA): 1.57
- Mean Ratio (GDI5755_2d vs DMSO_2d) (protein BCG_1890c A0A0H3MB87 Type II NADH dehydrogenase Ndh/Rv1854c): 1.53
- Mean Ratio (GDI5755_2d vs DMSO_2d) (protein BCG_2010c A0A0H3M561 DUF1490 family protein): 1.88
- Mean Ratio (GDI5755_2d vs DMSO_2d) (protein BCG_2056c A0A0H3MBM9 Possible conserved transmembrane protein): 1.52
- Mean Ratio (GDI5755_2d vs DMSO_2d) (protein BCG_2072c A0A0H3M7M3 Probable transmembrane protein): 2.05
- Mean Ratio (GDI5755_2d vs DMSO_2d) (protein BCG_2419c A0A0H3M8K8 Probable conserved lipoprotein lppR): 1.48
- Mean Ratio (GDI5755_2d vs DMSO_2d) (protein BCG_2583 A0A0H3M7F6 Probable proline and glycine rich transmembrane protein): 1.73
- Mean Ratio (GDI5755_2d vs DMSO_2d) (protein BCG_2657 A0A0H3M963 Archease domain-containing protein): 1.52
- Mean Ratio (GDI5755_2d vs DMSO_2d) (protein BCG_2934c A0A0H3M896 Possible D-amino acid aminohydrolase): 1.77
- Mean Ratio (GDI5755_2d vs DMSO_2d) (protein BCG_2965 A0A0H3MDP7 Probable transposase for insertion sequence element IS1533): 2.65
- Mean Ratio (GDI5755_2d vs DMSO_2d) (protein BCG_3007c A0A0H3M7X4 DNA-binding protein HupB): 1.45
- Mean Ratio (GDI5755_2d vs DMSO_2d) (protein BCG_3038 A0A0H3MA42 Probable lipoprotein lpqA): 1.97

— PMC12042115 (mLife, 2025)
